Data: the supplement of paper PMC10307832

Assays:
Experiment in all cases: relative viability (nuclei count vs DMSO), 5 days (fraction); higher = more cells survive
[1] = compound: C=CC(=O)N1CCC[C@@H](n2nc(-c3ccc(Oc4ccccc4)cc3)c3c(N)ncnc32)C1 [Ibrutinib] + CC(=O)c1c(C)c2cnc(Nc3ccc(N4CCNCC4)cn3)nc2n(C2CCCC2)c1=O [Palbociclib] (partner 0.5 µM)
Outline: (§1)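 For relative viability, nuclei counts in treated wells were divided by those in vehicle wells. Lung cancer cell lines had been pin-tool dosed in 1536-well plates the day after seeding and cultured for 5 days, then fixed and stained in one step (final 0.05% Triton X-100, 1% formaldehyde, 1 ug/ml Hoechst) and imaged at 4×. Doses were one drug alone or a fixed anchor-drug dose plus five library-drug doses (not always all listed) in √10 steps, and values are duplicate-plate medians.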

[2] = compound: C=CC(=O)N1CCC[C@@H](n2nc(-c3ccc(Oc4ccccc4)cc3)c3c(N)ncnc32)C1 [Ibrutinib] + CC(C)C[C@H](NC(=O)[C@H](Cc1ccccc1)NC(=O)c1cnccn1)B(O)O [Bortezomib] (partner 0.002 µM)
Outline: as §1

[3] = compound: C=CC(=O)Nc1cc(-n2c(=O)ccc3cnc4ccc(-c5ccc(NS(C)(=O)=O)cc5)cc4c32)ccc1C [BMX-IN-1] + C[C@]1(O)C[C@@H](c2nc(-c3ccc4ccc(-c5ccccc5)nc4c3)c3c(N)nccn32)C1 [Linsitinib] (partner 1 µM)
Outline: as §1

[4] = compound: C=CCc1cccc(/C=N/NC(=O)CN2CCN(Cc3ccccc3)CC2)c1O [PAC-1] + COc1cccc2cc(-c3nc([C@H]4CC[C@H](C(=O)O)CC4)n4ncnc(N)c34)[nH]c12 [OSI-027] (partner 0.5 µM)
Outline: as §1

Cell Line | relative viability ([1]; first compound 0.01581 µM) | relative viability ([1]; first compound 0.05 µM) | relative viability ([1]; first compound 0.1581 µM) | relative viability ([1]; first compound 0.5 µM) | relative viability ([2]; first compound 0.01581 µM) | relative viability ([2]; first compound 0.05 µM) | relative viability ([2]; first compound 0.1581 µM) | relative viability ([2]; first compound 0.5 µM) | relative viability ([3]; first compound 0.02 µM) | relative viability ([3]; first compound 0.2 µM) | relative viability ([3]; first compound 0.6325 µM) | relative viability ([3]; first compound 2 µM) | relative viability ([4]; first compound 0.02 µM) | relative viability ([4]; first compound 0.06325 µM) | relative viability ([4]; first compound 0.2 µM) | relative viability ([4]; first compound 2 µM) | relative viability ([1]; first compound 0.005 µM) | relative viability ([2]; first compound 0.005 µM)
NCI-H1355 | 0.362 | 0.359 | 0.422 | 0.295 | 1.14 | 1.18 | 1.2 | 1.16 | 0.873 | 0.827 | 0.867 | 0.853 | 0.403 | 0.436 | 0.404 | 0.438 |  | 
LK-2 | 0.662 | 0.586 | 0.542 | 0.579 |  |  |  |  | 0.798 | 0.792 | 0.696 | 0.765 | 0.186 | 0.195 | 0.208 | 0.206 | 0.469 | 
NCI-H1650 | 0.305 | 0.314 | 0.436 | 0.243 | 0.216 | 0.23 | 0.203 | 0.22 |  |  |  |  | 0.569 | 0.614 | 0.55 | 0.612 | 0.382 | 0.22
NCI-H838 | 0.209 | 0.202 | 0.202 | 0.234 | 0.729 | 0.687 | 0.741 | 0.673 | 1.19 | 1.26 | 1.2 | 1.08 | 0.359 | 0.386 | 0.373 | 0.398 | 0.178 | 0.781
EMC-BAC-2 | 0.493 | 0.566 |  | 0.497 | 1 | 0.997 | 1.05 | 1.01 | 0.916 | 0.782 | 0.84 | 0.802 | 0.367 | 0.363 | 0.371 | 0.382 | 0.509 | 1
SW 1573 | 0.345 | 0.419 | 0.393 | 0.477 | 0.97 | 0.8 | 0.992 | 0.984 | 0.709 | 0.864 | 0.825 | 0.771 | 0.642 | 0.613 | 0.606 | 0.791 |  | 0.771
CAL-12T | 0.286 | 0.233 | 0.286 | 0.14 | 0.915 | 0.836 | 0.884 | 0.693 | 0.849 | 0.811 | 0.932 | 1.01 | 0.673 | 0.723 | 0.567 | 0.645 | 0.241 | 0.988
NCI-H2009 | 0.214 | 0.183 | 0.169 | 0.288 | 1 | 0.988 | 0.864 | 1.05 | 1.27 | 1.27 | 1.29 | 1.2 | 0.645 | 0.614 | 0.582 | 0.669 | 0.136 | 1.09
HARA | 0.217 | 0.241 | 0.254 | 0.223 | 1.14 | 0.987 | 0.976 | 0.937 | 1.2 | 1.21 | 0.851 | 0.886 | 0.487 | 0.54 | 0.426 | 0.504 | 0.284 | 1.02
HCC-827 | 0.438 | 0.453 | 0.475 | 0.17 | 1.05 | 1.15 | 0.982 | 0.807 | 1.05 | 1.01 | 0.999 | 0.969 | 0.763 | 0.692 | 0.703 | 0.792 | 0.471 | 1.19
EBC-1 |  |  |  |  | 0.524 | 0.555 | 0.668 | 0.486 | 1.08 | 0.802 | 0.983 | 1.04 |  |  |  |  |  | 0.693
NCI-H647 | 0.385 | 0.305 | 0.374 | 0.538 | 0.86 | 0.991 | 1.04 | 1.02 | 1.36 | 1.8 | 1.25 | 1.02 | 0.684 | 0.762 | 0.594 | 0.617 | 0.334 | 0.823
A549 |  |  |  |  |  |  |  |  | 0.627 | 0.973 | 0.808 | 0.552 |  |  |  |  |  | 
NCI-H661 | 0.337 | 0.332 | 0.366 | 0.304 | 0.748 | 0.652 | 0.838 | 0.611 | 0.677 | 0.54 | 0.5 | 0.685 | 0.631 | 0.747 | 0.785 | 0.577 | 0.365 | 0.833
NCI-H1651 | 0.5 | 0.533 | 0.489 | 0.51 | 0.971 |  | 0.822 | 0.967 | 1.22 | 0.885 | 0.912 | 0.86 | 0.766 | 0.744 | 0.64 | 0.612 | 0.529 | 0.953
HCC-78 | 0.472 | 0.507 | 0.42 | 0.414 | 0.453 | 0.58 | 0.496 | 0.488 | 0.572 | 0.571 | 0.582 | 0.643 | 0.336 | 0.335 | 0.376 | 0.396 | 0.481 | 0.513
NCI-H2085 | 0.469 | 0.425 | 0.47 | 0.44 | 0.954 | 0.983 | 0.963 | 0.963 | 0.915 | 0.934 | 1.04 | 0.97 | 0.755 | 0.713 | 0.66 | 0.754 | 0.467 | 
NCI-H2228 | 0.687 | 0.697 | 0.947 | 0.779 | 0.989 | 1.13 | 1.37 | 0.92 | 0.969 | 0.907 | 0.848 | 0.648 | 0.543 | 0.513 | 0.512 | 0.564 | 0.912 | 0.996
LU99A | 0.391 | 0.41 | 0.443 | 0.391 | 0.97 | 1.28 | 1.21 | 1.2 | 0.547 | 0.533 | 0.532 | 0.535 | 0.303 | 0.314 | 0.257 | 0.3 | 0.339 | 1.01
NCI-H522 | 1.05 | 0.861 | 1.01 | 0.664 |  |  |  |  |  |  |  |  | 0.673 | 0.695 | 0.737 | 0.691 | 0.865 | 
